Target: T1, aldose reductase (Bos taurus, UniProt P16116)
T1 construct: partially purified aldose reductase is isolated in known manner from bovine lenses; from tissue; host or cells: bovine lenses
Test: in vitro inhibition of partially purified aldose reductase isolated from bovine lenses (reduction of glucose to sorbitol, spectrophotometric)
Format: biochemical
Conditions: in vitro test, bovine lens aldose reductase
Experimental: Thus, partially purified aldose reductase is isolated in known manner from bovine lenses. The percentage inhibition of this enzyme's ability in vitro to catalyse the reduction of aldoses to polyhydric alcohols, and particularly to reduce glucose to sorbitol, caused by a test compound is then determined using standard spectrophotometric methods.

- IC50: 320 nM
SMILES: O=[N+]([O-])CS(=O)(=O)c1cccc2ccccc12 [Example 1, (1-naphthylsulphonyl)nitromethane]
